Consider 20 compounds from BindingDB's records for doi:10.1016/j.ejmech.2021.113775 (Laboratory For Marine Drugs and Bioproducts of Qingdao …, 2021).

The structures appear in SMILES notation.

As usually defined, the koff is the rate constant with which the complex falls apart.

This assay has as its target Sphingosine 1-phosphate receptor 2 (Homo sapiens, UniProt O95136). Nature of the assay: Binding affinity to S1PR2 (unknown origin) assessed as dissociation constant measured for 60 secs by surface plasmon resonance assay.

Sequence of Sphingosine 1-phosphate receptor 2 (O95136 whole entry): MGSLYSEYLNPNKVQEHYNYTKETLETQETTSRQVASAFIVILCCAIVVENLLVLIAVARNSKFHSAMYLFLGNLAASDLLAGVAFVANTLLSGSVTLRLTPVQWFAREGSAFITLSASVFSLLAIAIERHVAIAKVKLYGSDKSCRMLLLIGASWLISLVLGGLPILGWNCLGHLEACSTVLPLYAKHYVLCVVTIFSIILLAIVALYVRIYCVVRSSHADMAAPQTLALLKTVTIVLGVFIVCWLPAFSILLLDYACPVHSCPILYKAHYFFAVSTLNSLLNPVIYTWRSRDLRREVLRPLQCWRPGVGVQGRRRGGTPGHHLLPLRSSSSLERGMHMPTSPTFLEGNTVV

As for `Cc1nn(C)c2nc(NNC(=O)Nc3cc(Cl)nc(Cl)c3)cc(C(C)C)c12`, the koff is 0.161 s⁻¹.
As for `CN(C)c1nc(NNC(=O)Nc2cc(Cl)nc(Cl)c2)nc2c1ccn2C`, the figure is 0.102 s⁻¹; as for `O=C(NNc1nc(N2CCOCC2)c2ccn(C3CC3)c2n1)Nc1cc(Cl)nc(Cl)c1`, 0.133 s⁻¹.
As for `Cn1ccc2c(-c3ccccc3)nc(NNC(=O)Nc3cc(Cl)nc(Cl)c3)nc21`, the figure is 0.136 s⁻¹; as for `O=C(Nc1cc(Cl)nc(Cl)c1)Nc1cc2ccccn2n1`, 0.116 s⁻¹.
As for `O=C(Nc1cc(Cl)nc(Cl)c1)Nc1cc2ccc(-c3ccccc3)cn2n1`, the figure is 0.201 s⁻¹; as for `COc1ccc(-c2ccc3cc(NC(=O)Nc4cc(Cl)nc(Cl)c4)nn3c2)cc1`, 0.112 s⁻¹; as for `O=C(NNc1nc(Nc2ccccc2)nc(N2CCCC2)n1)Nc1cc(Cl)nc(Cl)c1`, 0.133 s⁻¹.
Regarding `CNc1cc(C)nc(NNC(=O)Nc2cc(Cl)nc(Cl)c2)n1`, the koff is 0.236 s⁻¹.
As to `Cc1cc(NC(=O)Nc2cc(Cl)nc(Cl)c2)cc(C)n1`, the off-rate constant (koff) came out at 0.146 s⁻¹.
In the case of `O=C(Nc1cc(Cl)cc(Cl)c1)Nc1cc(Cl)nc(Cl)c1`, the koff was 0.116 s⁻¹.
`CN1CCN(C(=O)Nc2cc(Cl)nc(Cl)c2)CC1`: the koff is 0.106 s⁻¹.
In the case of `Cc1cc(NC(=O)Nc2cc(Cl)nc(Cl)c2)n(C)n1`, the koff was determined as 0.177 s⁻¹.
As for `O=C(Nc1ccnc(Cl)c1)Nc1cc(Cl)nc(Cl)c1`, the figure is 0.201 s⁻¹; as for `COc1c(Cl)cc(NC(=O)Nc2cc(Cl)nc(Cl)c2)cc1Cl`, 0.312 s⁻¹; as for `O=C(Nc1cc(Cl)nc(Cl)c1)Nc1cc(Cl)nc(Cl)c1`, 0.697 s⁻¹.
With `COc1cc(NC(=O)Nc2cc(Cl)nc(Cl)c2)cc(Cl)n1`, the koff was 0.219 s⁻¹.
As for `CCOc1cc(NC(=O)Nc2cc(Cl)nc(Cl)c2)cc(Cl)n1`, the koff stood at 0.102 s⁻¹.
Consider `CC(C)Oc1cc(NC(=O)Nc2cc(Cl)nc(Cl)c2)cc(Cl)n1`, for which the koff was determined as 0.119 s⁻¹.
On to `O=C(Nc1cc(Cl)nc(Cl)c1)Nc1cc(Cl)nc(OC2CCCC2)c1`, for which the koff was found to be 0.179 s⁻¹.
